Tests used:
ALOMY [1] = experiment: Pre-emergence action against ALOMY; assay type: in vivo, Alopecurus myosuroides; settings: dosage 320 g/ha, pre-emergence, scored visually after 3 weeks vs untreated controls, 100% = plants have died, 0% = like control plants
Outline: (§1)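 Seeds sown in sandy loam in wood-fiber pots and covered with soil. Greenhouse growth; visual damage scored after 3 weeks versus untreated controls (100% = dead, 0% = like control).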

AVEFA [2] = experiment: Pre-emergence action against AVEFA; assay type: in vivo, Avena fatua; settings: dosage 320 g/ha, scored visually after 3 weeks vs untreated controls
Outline: as §1

CYPES [3] = experiment: Pre-emergence action against CYPES; assay type: in vivo, Cyperus esculentus; settings: pre-emergence, dosage 320 g/ha, scored visually after 3 weeks vs untreated controls
Outline: as §1

ECHCG [4] = experiment: Pre-emergence action against ECHCG; assay type: in vivo, Echinochloa crus-galli; settings: pre-emergence, dosage 320 g/ha, scored visually after 3 weeks vs untreated controls
Outline: as §1

LOLRI [5] = experiment: Pre-emergence action against LOLRI; assay type: in vivo, Lolium rigidum; settings: dosage 320 g/ha, scored visually after 3 weeks vs untreated controls
Outline: as §1

SETVI [6] = experiment: Pre-emergence action against SETVI; assay type: in vivo, Setaria viridis; settings: pre-emergence, dosage 320 g/ha, scored visually after 3 weeks vs untreated controls
Outline: as §1

ABUTH [7] = experiment: Pre-emergence action against ABUTH; assay type: in vivo, Abutilon theophrasti; settings: pre-emergence, dosage 320 g/ha, scored visually after 3 weeks vs untreated controls
Outline: as §1

AMARE [8] = experiment: Pre-emergence action against AMARE; assay type: in vivo, Amaranthus retroflexus; settings: pre-emergence, dosage 320 g/ha, scored visually after 3 weeks vs untreated controls
Outline: as §1

MATIN [9] = experiment: Pre-emergence action against MATIN; assay type: in vivo, Matricaria inodora; settings: Dosage 320 g/ha, pre-emergence
Outline: as §1

POLCO [10] = experiment: Pre-emergence action against POLCO; assay type: in vivo, Polygonum convolvulus; settings: Dosage 320 g/ha, pre-emergence
Outline: as §1

STEME [11] = experiment: Pre-emergence action against STEME; assay type: in vivo, Stellaria media; settings: Dosage 320 g/ha, pre-emergence
Outline: as §1

VIOTR [12] = experiment: Pre-emergence action against VIOTR; assay type: in vivo, Viola tricolor; settings: Dosage 320 g/ha, pre-emergence
Outline: as §1

VERPE [13] = experiment: Pre-emergence action against VERPE; assay type: in vivo, Veronica persica; settings: Dosage 320 g/ha, pre-emergence
Outline: as §1

CYPES [14] = experiment: Post-emergence action against CYPES; assay type: in vivo, Cyperus esculentus; settings: Cyperus esculentus, 504 h; post-emergence, dosage 80 g/ha, visual assessment about 3 weeks after treatment vs untreated controls; read-out: Post-emergence action against CYPES (herbicidal action in percent)
Outline: (§2)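 Post-emergence foliar spray on greenhouse plants at the one-leaf stage, using wettable-powder or emulsion-concentrate formulations in water (600 to […], plus 0.2% wetting agent). Damage scored by eye roughly 3 weeks later against untreated plants: 0% = like control, 100% = dead.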

ECHCG [15] = experiment: Post-emergence action against ECHCG; assay type: in vivo, Echinochloa crus-galli; settings: post-emergence, dosage 80 g/ha, visual assessment about 3 weeks after treatment vs untreated controls
Outline: as §2

LOLRI [16] = experiment: Post-emergence action against LOLRI; assay type: in vivo, Lolium rigidum; settings: dosage 80 g/ha, visual assessment about 3 weeks after treatment vs untreated controls
Description: Seeds of monocotyledonous and dicotyledonous weed and crop plants are laid out in sandy loam soil in wood-fiber pots, covered with soil and cultivated in a greenhouse under good growth conditions. 2 to 3 weeks after sowing, the test plants are treated at the one-leaf stage. The compounds of the invention, formulated in the form of wettable powders (WP) or as emulsion concentrates (EC), are then sprayed onto the green parts of the plants in the form of an aqueous suspension or emulsion at a water application rate equating to […], with addition of 0.2% wetting agent. After the test plants have been left to stand in the greenhouse under optimal growth conditions for about 3 weeks, the action of the preparations is assessed visually in comparison to untreated controls (herbicidal action in percent (%): 100% activity=the plants have died, 0% activity=like control plants). […] At the same time, inventive compounds leave Gramineae crops such as barley, wheat, rye, millet/Sorghum, corn or rice virtually undamaged when applied post-emergence, even at high active ingredient dosages. In addition, some substances are also harmless to dicotyledonous crops such as soya, cotton, oilseed rape, sugar beet or potatoes. Some of the compounds according to the invention have high selectivity and are therefore suitable for controlling unwanted vegetation in agricultural crops by the post-emergence method. The data of Tables B18 to B34 below illustrate, in an exemplary manner, the […] herbicidal action of the compounds according to the invention, the herbicidal activity being stated in percent.

SETVI [17] = experiment: Post-emergence action against SETVI; assay type: in vivo, Setaria viridis; settings: post-emergence, dosage 80 g/ha, visual assessment about 3 weeks after treatment vs untreated controls
Outline: as §2

ABUTH [18] = experiment: Post-emergence action against ABUTH; assay type: in vivo, Abutilon theophrasti; settings: post-emergence, dosage 80 g/ha, visual assessment about 3 weeks after treatment vs untreated controls
Outline: as §2

AMARE [19] = experiment: Post-emergence action against AMARE; assay type: in vivo, Amaranthus retroflexus; settings: post-emergence, dosage 80 g/ha, visual assessment about 3 weeks after treatment vs untreated controls
Outline: as §2

MATIN [20] = experiment: Post-emergence action against MATIN; assay type: in vivo, Matricaria inodora; settings: post-emergence, dosage 80 g/ha, visual assessment about 3 weeks after treatment vs untreated controls
Outline: as §2

PHBPU [21] = experiment: Post-emergence action against PHBPU; assay type: in vivo, Pharbitis purpurea; settings: post-emergence, dosage 80 g/ha
Outline: as §2

STEME [22] = experiment: Post-emergence action against STEME; assay type: in vivo, Stellaria media; settings: post-emergence, dosage 80 g/ha
Outline: as §2

VIOTR [23] = experiment: Post-emergence action against VIOTR; assay type: in vivo, Viola tricolor; settings: post-emergence, dosage 80 g/ha
Outline: as §2

VERPE [24] = experiment: Post-emergence action against VERPE; assay type: in vivo, Veronica persica; settings: dosage 80 g/ha
Outline: as §2

LOLMU = experiment: Pre-emergence action against LOLMU; assay type: in vivo, Lolium multiflorum; settings: dosage 320 g/ha, scored visually after 3 weeks vs untreated controls
Description: Seeds of monocotyledonous and dicotyledonous weed plants and crop plants are laid out in sandy loam soil in wood-fiber pots and covered with soil. The compounds of the invention, formulated in the form of wettable powders (WP) or as emulsion concentrates (EC), are then applied to the surface of the covering soil in the form of an aqueous suspension or emulsion at a water application rate equating to […], with addition of 0.2% wetting agent. After the treatment, the pots are placed in a greenhouse and kept under good growth conditions for the trial plants. The damage to the test plants is scored visually after a test period of 3 weeks by comparison with untreated controls (herbicidal activity in percent (%): 100% activity=the plants have died, 0% activity=like control plants).

PHBPU [25] = experiment: Pre-emergence action against PHBPU; assay type: in vivo, Pharbitis purpurea; settings: Dosage 320 g/ha, pre-emergence
Outline: as §1

ALOMY [26] = experiment: Post-emergence action against ALOMY; assay type: in vivo, Alopecurus myosuroides; settings: Dosage 80 g/ha, post-emergence
Outline: as §2

AVEFA [27] = experiment: Post-emergence action against AVEFA; assay type: in vivo, Avena fatua; settings: post-emergence, dosage 80 g/ha, visual assessment about 3 weeks after treatment vs untreated controls
Outline: as §2

POLCO [28] = experiment: Post-emergence action against POLCO; assay type: in vivo, Polygonum convolvulus; settings: post-emergence, dosage 80 g/ha
Outline: as §2

CC(C)C(=O)c1c(C(F)(F)F)ccc(C(=O)Nc2nnnn2C)c1Cl [1-140]
100%: pest or weed control at 320 g/ha (ALOMY [1]; Alopecurus myosuroides, 504 h, read-out: Pre-emergence action against ALOMY (herbicidal activity in percent)) | pest or weed control at 320 g/ha (ECHCG [4]; Echinochloa crus-galli, 504 h, read-out: Pre-emergence action against ECHCG (herbicidal activity)) | pest or weed control at 320 g/ha (LOLRI [5]; Lolium rigidum, 504 h, read-out: Pre-emergence action against LOLRI (herbicidal activity)) | pest or weed control at 320 g/ha (SETVI [6]; Setaria viridis, 504 h, read-out: SETVI (Table B8, pre-emergence herbicidal activity)) | pest or weed control at 320 g/ha (ABUTH [7]; Abutilon theophrasti, 504 h, read-out: Pre-emergence action against ABUTH (herbicidal activity)) | pest or weed control at 320 g/ha (AMARE [8]; Amaranthus retroflexus, 504 h, read-out: Pre-emergence action against AMARE (herbicidal activity)) | pest or weed control at 320 g/ha (MATIN [9]; Tripleurospermum inodorum, 504 h) | pest or weed control at 320 g/ha (STEME [11]; Stellaria media, 504 h) | pest or weed control at 320 g/ha (VIOTR [12]; Viola tricolor, 504 h) | pest or weed control at 320 g/ha (VERPE [13]; Veronica persica, 504 h) | pest or weed control at 80 g/ha (ECHCG [15]; Echinochloa crus-galli, 504 h, read-out: Post-emergence action against ECHCG (herbicidal action in percent)) | pest or weed control at 80 g/ha (SETVI [17]; Setaria viridis, 504 h, read-out: Post-emergence action against SETVI (herbicidal action in percent)) | pest or weed control at 80 g/ha (ABUTH [18]; Abutilon theophrasti, 504 h, read-out: Post-emergence action against ABUTH (herbicidal action in percent)) | pest or weed control at 80 g/ha (MATIN [20]; Tripleurospermum inodorum, 504 h, read-out: Post-emergence action against MATIN (herbicidal action in percent)) | pest or weed control at 80 g/ha (STEME [22]; Stellaria media, 504 h) | pest or weed control at 80 g/ha (VIOTR [23]; Viola tricolor, 504 h)
80%: pest or weed control at 320 g/ha (AVEFA [2]; Avena fatua, 504 h, read-out: Pre-emergence action against AVEFA (herbicidal activity)) | pest or weed control at 320 g/ha (POLCO [10]; Fallopia convolvulus, 504 h) | pest or weed control at 80 g/ha (LOLRI [16]; Lolium rigidum, 504 h, read-out: Post-emergence action against LOLRI (herbicidal action in percent)) | pest or weed control at 80 g/ha (VERPE [24]; Veronica persica, 504 h)
90%: pest or weed control at 320 g/ha (CYPES [3]; Cyperus esculentus, 504 h, read-out: Pre-emergence action against CYPES (herbicidal activity)) | pest or weed control at 80 g/ha (CYPES [14]) | pest or weed control at 80 g/ha (AMARE [19]; Amaranthus retroflexus, 504 h, read-out: Post-emergence action against AMARE (herbicidal action in percent)) | pest or weed control at 80 g/ha (PHBPU [21]; Ipomoea purpurea, 504 h)

CCn1nnnc1NC(=O)c1ccc(C(F)(F)F)c(C(=O)C2CC2)c1OC [2-50]
100%: Pre-emergence action against ALOMY (herbicidal activity in percent) (ALOMY [1]) | Pre-emergence action against AVEFA (herbicidal activity) (AVEFA [2]) | Pre-emergence action against CYPES (herbicidal activity) (CYPES [3]) | Pre-emergence action against ECHCG (herbicidal activity) (ECHCG [4]) | Pre-emergence action against LOLMU (herbicidal activity) (LOLMU) | SETVI (Table B8, pre-emergence herbicidal activity) (SETVI [6]) | Pre-emergence action against ABUTH (herbicidal activity) (ABUTH [7]) | Pre-emergence action against AMARE (herbicidal activity) (AMARE [8]) | Pre-emergence action against MATIN (MATIN [9]) | Pre-emergence action against PHBPU (PHBPU [25]) | Pre-emergence action against STEME (STEME [11]) | Pre-emergence action against VIOTR (VIOTR [12]) | Pre-emergence action against VERPE (VERPE [13]) | Post-emergence action against ECHCG (herbicidal action in percent) (ECHCG [15]) | Post-emergence action against SETVI (herbicidal action in percent) (SETVI [17]) | Post-emergence action against AMARE (herbicidal action in percent) (AMARE [19]) | Post-emergence action against MATIN (herbicidal action in percent) (MATIN [20])
90%: Post-emergence action against ALOMY (ALOMY [26]) | Post-emergence action against AVEFA (herbicidal action in percent) (AVEFA [27]) | Post-emergence action against ABUTH (herbicidal action in percent) (ABUTH [18])
80%: Pre-emergence action against POLCO (POLCO [10])
100: Post-emergence action against PHBPU (PHBPU [21]) | Post-emergence action against STEME (STEME [22]) | Post-emergence action against VIOTR (VIOTR [23])
90: Post-emergence action against POLCO (POLCO [28]) | Post-emergence action against VERPE (VERPE [24])

CCn1nnnc1NC(=O)c1ccc(C(F)(F)F)c(C(=O)C2(C)CC2)c1Cl [2-147]
80%: Pre-emergence action against CYPES (herbicidal activity) (CYPES [3]) | Pre-emergence action against VERPE (VERPE [13]) | Post-emergence action against AVEFA (herbicidal action in percent) (AVEFA [27]) | Post-emergence action against ECHCG (herbicidal action in percent) (ECHCG [15]) | Post-emergence action against LOLRI (herbicidal action in percent) (LOLRI [16]) | Post-emergence action against SETVI (herbicidal action in percent) (SETVI [17]) | Post-emergence action against AMARE (herbicidal action in percent) (AMARE [19])
100%: Pre-emergence action against ECHCG (herbicidal activity) (ECHCG [4]) | SETVI (Table B8, pre-emergence herbicidal activity) (SETVI [6]) | Pre-emergence action against ABUTH (herbicidal activity) (ABUTH [7]) | Pre-emergence action against AMARE (herbicidal activity) (AMARE [8]) | Pre-emergence action against MATIN (MATIN [9]) | Pre-emergence action against STEME (STEME [11]) | Pre-emergence action against VIOTR (VIOTR [12]) | Post-emergence action against MATIN (herbicidal action in percent) (MATIN [20])
90%: Pre-emergence action against ALOMY (herbicidal activity in percent) (ALOMY [1]) | Pre-emergence action against AVEFA (herbicidal activity) (AVEFA [2]) | Pre-emergence action against LOLRI (herbicidal activity) (LOLRI [5]) | Post-emergence action against ABUTH (herbicidal action in percent) (ABUTH [18])
90: Post-emergence action against PHBPU (PHBPU [21])

Reference: patent publication US11051515B2, “3-acyl-benzamides and their use as herbicides” (Bayer Aktiengesellschaft, priority 2017, dated 2021)
